According to US5770573A, “CS-1 peptidomimetics, compositions and methods of using the same” (Cytel Corporation, priority 1995, dated 1998):
Square brackets hold non-standard residues; d marks the D form. Peptide text beside a SMILES is read from it. * marks the point of attachment. NHOctadecyl = CCCCCCCCCCCCCCCCCCN*; Cha = N[C@@H](CC1CCCCC1)C(=O)O; X15 = O=S(=O)(c1cccc2cccnc12)*; NMeL = CN[C@@H](CC(C)C)C(=O)O; X19 = O=C(Cc1ccc(Br)cc1)*; Morpholide = C1CN(*)CCO1; PhAc = O=C(Cc1ccccc1)*; X18 = O=C(c1cn[nH]c1)*; X1 = CCCCCCCCCCCCCCO*; X4 = CCN(CC)C(=O)CO*; Bz = O=C(c1ccccc1)*; Ahx = NCCCCCC(=O)O; X6 = O=C(O)CO*; NHBu = CCCCN*

Each compound was assayed against VLA-4 (Homo sapiens, UniProt P05556+P13612) (assay: In vitro binding inhibition of 51Cr-labeled Jurkat cells to solid phase-bound CS-1 compound (SEQ ID NO:1)). Conditions: not given.
VLA-4, sequence (P13612 34-1032): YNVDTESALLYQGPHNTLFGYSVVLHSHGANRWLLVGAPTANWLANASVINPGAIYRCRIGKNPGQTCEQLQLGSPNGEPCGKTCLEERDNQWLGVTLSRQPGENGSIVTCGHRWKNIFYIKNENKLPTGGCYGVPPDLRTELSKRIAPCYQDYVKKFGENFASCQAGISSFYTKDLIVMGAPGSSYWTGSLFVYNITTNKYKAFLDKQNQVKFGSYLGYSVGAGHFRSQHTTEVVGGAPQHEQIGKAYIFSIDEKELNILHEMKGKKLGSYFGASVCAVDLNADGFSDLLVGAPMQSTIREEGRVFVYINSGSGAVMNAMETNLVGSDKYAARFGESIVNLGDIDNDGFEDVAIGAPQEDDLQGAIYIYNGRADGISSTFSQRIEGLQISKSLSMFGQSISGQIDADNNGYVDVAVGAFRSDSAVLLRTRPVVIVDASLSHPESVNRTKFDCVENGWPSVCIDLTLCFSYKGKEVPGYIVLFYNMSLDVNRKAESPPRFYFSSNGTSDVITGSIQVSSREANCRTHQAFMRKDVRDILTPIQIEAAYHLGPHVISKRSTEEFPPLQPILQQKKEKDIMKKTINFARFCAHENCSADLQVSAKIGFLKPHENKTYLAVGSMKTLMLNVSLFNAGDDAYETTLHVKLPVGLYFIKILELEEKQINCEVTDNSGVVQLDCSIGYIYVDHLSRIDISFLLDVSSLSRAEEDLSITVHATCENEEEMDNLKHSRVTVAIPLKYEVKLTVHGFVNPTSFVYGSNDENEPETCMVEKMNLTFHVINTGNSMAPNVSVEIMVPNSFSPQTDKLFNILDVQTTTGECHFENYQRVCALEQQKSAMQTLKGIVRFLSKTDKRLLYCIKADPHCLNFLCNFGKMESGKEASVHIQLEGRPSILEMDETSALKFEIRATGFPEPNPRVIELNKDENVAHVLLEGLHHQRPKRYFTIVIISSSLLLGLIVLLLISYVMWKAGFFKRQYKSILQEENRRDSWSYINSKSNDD
VLA-4, sequence (P05556 21-798): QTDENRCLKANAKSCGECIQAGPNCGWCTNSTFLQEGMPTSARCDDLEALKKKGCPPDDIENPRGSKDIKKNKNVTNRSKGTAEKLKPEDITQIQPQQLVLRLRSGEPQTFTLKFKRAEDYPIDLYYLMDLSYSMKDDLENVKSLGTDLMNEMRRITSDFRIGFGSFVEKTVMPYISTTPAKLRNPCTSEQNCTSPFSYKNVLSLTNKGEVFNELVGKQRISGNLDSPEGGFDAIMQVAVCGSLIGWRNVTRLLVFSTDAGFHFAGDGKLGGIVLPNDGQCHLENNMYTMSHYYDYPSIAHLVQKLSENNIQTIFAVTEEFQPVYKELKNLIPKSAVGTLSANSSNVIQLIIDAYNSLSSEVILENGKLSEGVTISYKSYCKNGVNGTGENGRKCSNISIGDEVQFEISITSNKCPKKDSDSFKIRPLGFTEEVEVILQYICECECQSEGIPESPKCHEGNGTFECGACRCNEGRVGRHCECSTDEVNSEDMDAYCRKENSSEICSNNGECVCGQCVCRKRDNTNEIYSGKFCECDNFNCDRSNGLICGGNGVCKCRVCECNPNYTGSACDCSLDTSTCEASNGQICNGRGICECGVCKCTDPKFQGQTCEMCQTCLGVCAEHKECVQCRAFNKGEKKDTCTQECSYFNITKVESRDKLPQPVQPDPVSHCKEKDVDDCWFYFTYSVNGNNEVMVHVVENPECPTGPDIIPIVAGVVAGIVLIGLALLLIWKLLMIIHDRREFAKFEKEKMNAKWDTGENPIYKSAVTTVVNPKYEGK
Type: cell-based
Set-up: inflammatory cells that contain the VLA-4 receptor [Jurkat cells; host or cells: Jurkat (human T lymphoblastic line)
Experimental: Binding inhibition is measured here as a concentration of compound that inhibits one-half the binding between a standard number of Jurkat cells and a standard amount of CS-1 compound bound to the surface of a microtiter plate well. Those concentrations are conveniently expressed as IC50 values, smaller numbers indicating a lower concentration required to inhibit 50 percent binding and therefore greater potency. Further specifics of this assay are provided hereinafter.
Jurkat cells (ATCC TIB 152), a human T lymphoblastic line, labeled with ^51 chromium were used to assay in vitro binding inhibition provided by various compounds discussed herein.
The plates were prepared as follows: The 25-mer CS-1 compound (SEQ ID NO:1) dissolved at 0.5-1 μg/ml in a buffer of 0.1M NaHCO3 at pH 9.5 that also contained 10 μg/ml of bovine serum albumin (BSA) or a conjugate of the CS-1 compound linked to […] (CS-1-OVA) dissolved at 1-2.5 μg/ml in the same buffer was used as the substrate. Each well of the microtiter plates was coated with 50 μl of substrate or buffer alone for controls. The wells were permitted to dry out completely and were then rinsed twice with PBS at pH 7.4. Non-specific binding sites of each well were then blocked using 200 μl per well of RPMI/1 percent BSA for two hours at room temperature.
Jurkat cells (3-5×10^6 cells) were placed into a 15 ml Falcon™ round-bottom tube with a cap. The tube was centrifuged, and the extra medium was then removed.
Two hundred microliters of a ^51 Cr labeling solution were added to the centrifuged cells and maintained in contact with the cells for 90-120 minutes in a warm room. […] Longer contact times provide a greater amount of labeling but lower cell viability.
The labeled cells are washed with (i) complete medium, (ii) 1 mM EDTA/PBS and then (iii) RPM1/1 percent BSA free of serum components. The cells are centrifuged after each washing. The cells are finally resuspended in serum-free RPMI/1 percent BSA at a concentration of 1×10^6 viable cells/ml, which provides a concentration that is diluted by one-half in the assay.
Inhibitor compounds are prepared as stock solutions at 20 mg/ml in DMSO in 1.5 ml cryogenic screwcap vials, and were stored at -70° C. Using Flow™ round-bottom or V-bottom microtiter plates, the inhibitor compounds were prepared at twice the assay concentration in RPMI/1 percent BSA at 60 μl/well.
Four initial dilutions were typically used.
The ^51 Cr-labeled cells ([…] at 60 μl/well) were then admixed with the diluted compound solutions. The admixtures were maintained at room temperature (about 22° C.) for 30 minutes.
One hundred microliters of each inhibitor compound/cell admixture were transferred to the substrate-coated wells. This was done in triplicate for each dilution. The resulting plates were incubated for 30 minutes at 37° C. and then washed gently three times with RPMI/1 percent BSA at 200 μl/well. Binding was observed microscopically, particularly after the second wash.
The bound cells were then lysed by the addition of a 0.5 percent solution of sodium dodecylsulfate in water at 100 μl/well. The resulting solutions were then processed for counting and calculation of IC50 values following usual procedures.
The data of Table 1 are normalized to the binding of SEQ ID NO: 3. […] Multiple assays for the same compound were averaged.
In the case of `CC(C)CN(CC(=O)Nc1ccccc1)C(=O)CN(CC(=O)O)C(=O)CNC(=O)C1CCCC1` [1032.01], the “Relative Potency” value is reported as “.42”. With `CC(C)C[C@@H]1NC(=O)N([C@@H](CC(=O)O)C(=O)N[C@@H](Cc2ccccc2)C(=O)N2CCCCC2)C1=O` [1047.05] the “Relative Potency” value was 12.5. In the case of `CC(C)C[C@@H](C(=O)N[C@@H](CC(=O)O)C(=O)N[C@@H](Cc1ccccc1)C(=O)N1CCCCC1)N1C(=O)N[C@H](c2ccccc2)C1=O` [1047.01], the “Relative Potency” value is reported as 34.4. With `CC(C)CC(CCCc1ccccc1)C(=O)N[C@@H](CC(=O)O)C(=O)N[C@@H](Cc1ccccc1)C(=O)N1CCC[C@@H]1C(N)=O` (some centres unmarked) [1056.14] the “Relative Potency” value was “.25”. For `CC[C@H](C)[C@H](N)C(=O)N[C@@H](CC(C)C)C(=O)N[C@@H](CC(=O)O)C(=O)N[C@@H](CC1CCCCC1)C(=O)N1CCC[C@H]1C(N)=O` [926.14] (H-ILD[Cha]P-NH2), the “Relative Potency” value was “.13”. In the case of `CC(C)C[C@H](NC(=O)[C@H]1CCCN1)C(=O)N[C@@H](CC(=O)O)C(=O)N[C@@H](Cc1ccccc1)C(=O)N1CCC[C@@H]1C(N)=O` [951.11] (H-[dP]LDF[dP]-NH2), the “Relative Potency” value is reported as 2.5. With `CC(C)C[C@H](NC(=O)[C@@H](N)Cc1ccccc1)C(=O)N[C@@H](CC(=O)O)C(=O)N[C@H](C(=O)N1CCC[C@@H]1C(N)=O)C(C)C` [926.04] (H-FLDV[dP]-NH2) the “Relative Potency” value was 1.88. In the case of `CC(C)C[C@H](NC(=O)Cc1ccc(Br)cc1)C(=O)N[C@@H](CC(=O)O)C(=O)N[C@@H](Cc1ccccc1)C(=O)N1CCC[C@@H]1C(N)=O` [951.08] (X19-LDF[dP]-NH2), the “Relative Potency” value is reported as 6.26. For `CC(C)C[C@H](NC(=O)c1cn[nH]c1)C(=O)N[C@@H](CC(=O)O)C(=O)N[C@@H](Cc1ccccc1)C(=O)N1CCC[C@@H]1C(N)=O` [951.03] (X18-LDF[dP]-NH2), the “Relative Potency” value was 28.2. In the case of `CC(=O)N[C@@H](Cc1ccccc1)C(=O)N[C@@H](CC(C)C)C(=O)N[C@@H](CC(=O)O)C(=O)N[C@@H](Cc1ccccc1)C(=O)N1CCC[C@@H]1C(N)=O` [951.42] (Ac-FLDF[dP]-NH2), the “Relative Potency” value is reported as 35.4. In the case of `CC[C@H](C)[C@H](N)C(=O)N(C)[C@@H](CC(C)C)C(=O)N[C@@H](CC(=O)O)C(=O)N[C@H](C(=O)N1CCC[C@H]1C(N)=O)C(C)C` [926.11] (H-I[NMeL]DVP-NH2), the “Relative Potency” value is reported as “.06”. For `CC(C)C[C@H](NC(=O)CC1CCCCC1)C(=O)N[C@@H](CC(=O)O)C(=O)N[C@H](C(=O)N1CCC[C@@H]1C(N)=O)C(C)C` [896.48], the “Relative Potency” value was 3.76. `CCC(C)CC(=O)N[C@@H](CC(C)C)C(=O)N[C@@H](CC(=O)O)C(=O)N[C@H](C(=O)N1CCC[C@@H]1C(N)=O)C(C)C` (some centres unmarked) [896.46] was tested, and the “Relative Potency” value was 6.57. In the case of `NC(=O)[C@H]1CCCN1C(=O)[C@H](Cc1ccccc1)NC(=O)[C@H](CC(=O)O)NC(=O)c1cc2cc(O)ccc2cc1O` [1056.05], the “Relative Potency” value is reported as 0. In the case of `CC(C)C[C@H](N)C(=O)N[C@@H](CC(=O)O)C(=O)N[C@H](C(N)=O)C(C)C` [926.29] (H-Leu-Asp-Val-NH2), the “Relative Potency” value is reported as 0.01. In the case of `CC[C@H](C)[C@H](N)C(=O)N[C@@H](CC(C)C)C(=O)N[C@@H](CC(=O)O)C(=O)N[C@@H](CCSC)C(=O)N1CCC[C@H]1C(N)=O` [926.13] (H-ILDMP-NH2), the “Relative Potency” value is reported as “.3”. In the case of `CC(C)C[C@H](NS(=O)(=O)c1cccc2cccnc12)C(=O)N[C@@H](CC(=O)O)C(=O)N[C@@H](Cc1ccccc1)C(=O)N1CCC[C@@H]1C(N)=O` [951.07] (X15-LDF[dP]-NH2), the “Relative Potency” value is reported as 1.57.

Same assay, conditions: binding inhibition potency relative to standard compound of SEQ ID NO:3 = 1 (normalized IC50); about one-tenth or less assigned zero
In the case of `CC(C)[C@H](NC(=O)[C@H](CC(=O)O)NC(=O)[C@H](CC1CCCCC1)NC(=O)c1ccccc1)C(=O)N1CCC[C@@H]1C(N)=O` [896.34] (Bz-[Cha]DV[dP]-NH2), the “Relative Potency” value is reported as 6.73. `CCCCNC(=O)[C@H](Cc1ccccc1)NC(=O)[C@H](CC(=O)O)NC(=O)[C@H](CC(C)C)NC(=O)Cc1ccccc1` [1051.03] (PhAc-Leu-Asp-Phe-NHBu) was tested, and the “Relative Potency” value was 2.82. In the case of `NC(=O)[C@H]1CCCN1C(=O)[C@H](Cc1ccccc1)NC(=O)[C@H](CC(=O)O)NC(=O)[C@H](CS)NC(=O)Cc1ccccc1` [1042.22] (PhAc-CDF[dP]-NH2), the “Relative Potency” value is reported as 46.9. With `CC(C)C[C@H](NC(=O)Cc1ccccc1)C(=O)N[C@@H](CC(=O)O)C(=O)N[C@@H](Cc1ccccc1)C(N)=O` [997.12] (PhAc-Leu-Asp-Phe-NH2) the “Relative Potency” value was “.45”. `CC(C)C[C@H](NC(=O)Cc1ccccc1)C(=O)N[C@@H](CC(=O)O)C(=O)N1C(=O)N(Cc2ccccc2)C(=O)[C@@H]1Cc1ccccc1` [1047.08] was tested, and the “Relative Potency” value was “.38”. In the case of `CC(C)C[C@H](NC(=O)c1ccccc1)C(=O)N[C@@H](CC(=O)O)C(=O)N[C@@H](Cc1ccccc1)C(=O)N1CCC[C@@H]1C(N)=O` [896.28] (Bz-LDF[dP]-NH2), the “Relative Potency” value is reported as 44.6. For `CC(C)C[C@H](NC(=O)Cc1ccccc1)C(=O)N[C@@H](CC(=O)O)C(=O)NCCN1CCOCC1` [997.03], the “Relative Potency” value was 12.5. `CC(C)C[C@H](NC(=O)Cc1ccccc1)C(=O)N[C@@H](CC(=O)O)C(=O)N1C(=O)N(Cc2ccccc2)C(=O)[C@H]1Cc1ccccc1` [1047.07] was tested, and the “Relative Potency” value was “.38”. For `CC(C)C[C@H](NC(=O)Cc1ccccc1)C(=O)N[C@@H](CC(=O)O)C(=O)N1CCc2ccccc2C1` [997.09], the “Relative Potency” value was 3.13. For `NC(=O)[C@H]1CCCN1C(=O)[C@H](Cc1ccccc1)NC(=O)[C@H](CC(=O)O)NC(=O)[C@H](CC1CCCCC1)NC(=O)c1ccccc1` [896.31] (Bz-[Cha]DF[dP]-NH2), the “Relative Potency” value was 11. `CC(C)C[C@H](NC(=O)Cc1ccccc1)C(=O)N[C@@H](CC(=O)O)C(=O)N[C@@H](Cc1ccccc1)C(=O)NCC(=O)N1CCOCC1` [1051.04] (PhAc-LDFG-Morpholide) was tested, and the “Relative Potency” value was 3.13. In the case of `CC(C)C[C@H](NC(=O)Cc1ccccc1)C(=O)N[C@@H](CC(=O)O)C(=O)N[C@@H](Cc1c[nH]c2ccccc12)C(=O)N1CCC[C@@H]1C(N)=O` [896.60] (PhAc-LDW[dP]-NH2), the “Relative Potency” value is reported as 131. In the case of `CC(C)C[C@H](NC(=O)Cc1ccccc1)C(=O)N[C@@H](CC(=O)O)C(=O)N[C@@H](Cc1ccccc1)C(=O)N1CCC[C@H]1CO` [951.17], the “Relative Potency” value is reported as 163.

Same assay, conditions: compared with standard 10-mer of SEQ ID NO:3
With `CCCCCCCCCCCCCCCCCCNC(=O)CCCCCNC(=O)[C@@H]1CCCN1C(=O)[C@H](Cc1ccccc1)NC(=O)[C@H](CC(=O)O)NC(=O)[C@H](CC(C)C)NC(=O)Cc1ccccc1` [Compound ID No. 1068.01, phenylacetyl-Leu-Asp-Phe-Pro-NH(CH2)5 C(O)NHC18 H37] (PhAc-LDFP[Ahx]-NHOctadecyl) the “VLA-4 binding inhibition compared in words” value was “binding inhibition similar to that exhibited by the standard 10-mer compound”.

Same assay, conditions: relative to SEQ ID NO:3 = 1; potency before the prodrug compound is enzymatically converted to an active form
With `CCN(CC)C(=O)COC(=O)C[C@H](NC(=O)[C@H](CC(C)C)NC(=O)Cc1ccccc1)C(=O)N[C@@H](Cc1ccccc1)C(=O)N1CCC[C@@H]1C(N)=O` [1068.13] (PhAc-LD(X4)F[dP]-NH2) the “Relative Potency (prodrug compound)” value was 0. In the case of `CCCCCCCCCCCCCCOC(=O)C[C@H](NC(=O)[C@H](CC(C)C)NC(=O)Cc1ccccc1)C(=O)N[C@@H](Cc1ccccc1)C(=O)N1CCC[C@@H]1C(N)=O` [1068.11] (PhAc-LD(X1)F[dP]-NH2), the “Relative Potency (prodrug compound)” value is reported as 0. With `CC(C)C[C@H](NC(=O)Cc1ccccc1)C(=O)N[C@@H](CC(=O)OCC(=O)O)C(=O)N[C@@H](Cc1ccccc1)C(=O)N1CCC[C@@H]1C(N)=O` [1067.02] (PhAc-LD(X6)F[dP]-NH2) the “Relative Potency (prodrug compound)” value was “.81”. `CCCCCCCCCCCCCCCCCC(=O)OC1CCN(C(=O)[C@H](Cc2ccccc2)NC(=O)[C@H](CC(=O)O)NC(=O)[C@H](CC(C)C)NC(=O)Cc2ccccc2)CC1` [1068.05] was tested, and the “Relative Potency (prodrug compound)” value was “.63”.
